Laboratory results: patent US10070646B2, “Tetrazolinone compound and application thereof” (SUMITOMO CHEMICAL COMPANY, LIMITED, priority 2014, dated 2018)

Assays:
Type in all cases: in vivo
[1] = tested on: wheat rust fungus (Puccinia recondita); assay: Test Example 5: wheat rust preventive foliar spray test; conditions: 200 ppm sprayed on wheat (SHIROGANE); spores inoculated after 5 days; one day dark high humidity then 8 days under illumination
Protocol: Each of plastic pots was filled with soil and wheat (cultivar: SHIROGANE) was sowed and grown in a greenhouse for 9 days. Then, each water dilution prepared by adjusting so as to contain a predetermined concentration (200 ppm) of the present compound 1 was sprayed over stems and leaves of the wheat so that it sufficiently adhered to the surface of the leaves of the wheat. After spraying, the plant was air-dried and cultivated at 20° C. for 5 days under illumination, and then inoculated by sprinkling with spores of wheat rust fungus (Puccinia recondita). After the inoculation, the plant was placed at 23° C. for one day under dark and high humidity condition, and cultivated under illumination at 20° C. for 8 days, and then the area of lesion was investigated. As a result, the area of lesion on the plant treated with the present compound was 30% or less of that on an untreated plant.

[2] = tested on: barley scald fungus (Rhynchosporium secalis); assay: Test Example 6: barley scald preventive foliar spray test; conditions: 200 ppm sprayed on barley (MIKAMO GOLDEN); spores inoculated after 2 days; 3 days high humidity then 7 days in greenhouse
Text: (§1) Each of plastic pots was filled with soil and barley (cultivar: MIKAMO GOLDEN) was sowed and grown in a greenhouse for 7 days. Then, each water dilution prepared by adjusting so as to contain a predetermined concentration (200 ppm) of the present compound 1 was sprayed over stems and leaves of the barley so that it sufficiently adhered to the surface of the leaves of the barley. After spraying, the plant was air-dried. After 2 days, an aqueous suspension containing spores of barley scald fungus (Rhynchosporium secalis) was sprayed to inoculate the spores. After completion of the inoculation, the plant was placed for 3 days in a greenhouse at 23° C. in the daytime and 20° C. at night under high humidity condition and cultivated in a greenhouse for 7 days, and then the area of lesion was investigated. As a result, the area of lesion on the plant treated with of the present compound was 30% or less of that on an untreated plant.

[3] = tested on: cucumber downy mildew fungus (Pseudoperonospora cubensis); assay: Test Example 8: cucumber downy mildew preventive foliar spray test; conditions: 200 ppm sprayed on cucumber (SAGAMI HANJIRO); zoospores inoculated after 1 day; one day high humidity then 6 days in greenhouse
Text: (§2) Each of plastic pots was filled with soil and cucumber (cultivar: SAGAMI HANJIRO) was sowed and grown in a greenhouse for 19 days. Then, each water dilution prepared by adjusting so as to contain a predetermined concentration (200 ppm) of the present compound 1 was sprayed over stems and leaves of the cucumber so that it sufficiently adhered to the surface of the leaves of the cucumber. After spraying, the plant was air-dried and then, after 1 day, an aqueous suspension containing zoospores of cucumber downy mildew fungus (Pseudoperonospora cubensis) was sprayed to inoculate the zoospores. After the inoculation, the plant was placed stand at 23° C. for one day under high humidity condition, and then cultivated in a greenhouse at 24° C. in the daytime and 20° C. at night for 6 days, and then the area of lesion was investigated. As a result, the area of lesion on the plant treated with the present compound was 30% or less of that on an untreated plant.

[4] = tested on: wheat leaf blotch fungus (Septoria tritici); assay: Test Example 3: wheat leaf blotch preventive foliar spray test; conditions: 500 ppm sprayed on wheat (APOGEE); spores inoculated after 4 days; 3 days at 18° C. high humidity then 14 to 18 days under illumination
Text: Each of plastic pots was filled with soil and wheat (cultivar: APOGEE) was sowed and grown in a greenhouse for 10 days. Then, each water dilution prepared by adjusting so as to contain a predetermined concentration (500 ppm) of the present compound 1 was sprayed over stems and leaves of the wheat so that it sufficiently adhered to the surface of the leaves of the wheat. After spraying, the plant was air-dried. After 4 days, an aqueous suspension containing spores of wheat leaf blotch fungus (Septoria tritici) was sprayed over the wheat to inoculate the spores. After completion of the inoculation, the plant was placed at 18° C. under high humidity condition for 3 days and then placed under illumination for 14 to 18 days, and then the area of lesion was investigated. As a result, the area of lesion on the plant treated with the present compound was 30% or less of that on an untreated plant.

[5] = tested on: cucumber powdery mildew fungus (Sphaerotheca fuliginea, a QoI-resistant strain); assay: Test Example 4: cucumber powdery mildew (QoI-resistant strain) foliar spray test; conditions: 500 ppm sprayed on cucumber (SAGAMI HANJIRO), cytochrome b position 143 glycine to alanine, assessed after 8 days
Text: Each of plastic pots was filled with soil and cucumber (cultivar: SAGAMI HANJIRO) was sowed and grown in a greenhouse for 12 days. Then, each water dilution prepared by adjusting so as to contain a predetermined concentration (500 ppm) of the present compound 1 was sprayed over stems and leaves of the cucumber so that it sufficiently adhered to the surface of the leaves of the cucumber. After spraying, the plant was air-dried and then inoculated by sprinkling with spores of cucumber powdery mildew fungus (Sphaerotheca fuliginea, a QoI-resistant strain in which, among the genes encoding cytochrome b, the amino acid residue at position 143 of cytochrome b is mutated from glycine to alanine). After the inoculation, the plant was cultivated in a greenhouse at 24° C. in the daytime and 20° C. at night for 8 days, and then the area of lesion was investigated. As a result, the area of lesion on the plant treated with the present compound was 30% or less of that on an untreated plant.

[6] = tested on: barley net blotch fungus (Pyrenophora teres); assay: Test Example 1: barley net blotch preventive foliar spray test; conditions: 500 ppm sprayed on barley (MIKAMO GOLDEN) stems and leaves; spores inoculated after 2 days; 3 days high humidity then 7 days in greenhouse
Text: as §1, with “(500” for “(200”, “net blotch” for “scald”, “(Pyrenophora teres)” for “(Rhynchosporium secalis)”

[7] = tested on: kidney bean stem rot fungus (Sclerotinia sclerotiorum); assay: Test Example 2: kidney bean stem rot foliar spray test; conditions: 500 ppm sprayed on kidney bean (NAGAUZURA SAITOU); hyphae-containing PDA medium placed on leaves after air-drying; assessed four days after inoculation
Text: Each of plastic pots was filled with soil and kidney bean (cultivar: NAGAUZURA SAITOU) was sowed and grown in a greenhouse for 8 days. Then, each water dilution prepared by adjusting so as to contain a predetermined concentration (500 ppm) of the present compound 1 was sprayed over stems and leaves of the kidney bean so that it sufficiently adhered to the surface of the leaves of the kidney bean. After spraying, the plant was air-dried and a PDA medium containing hyphae of the kidney bean stem rot fungus (Sclerotinia sclerotiorum) was placed on the leaves of the kidney bean. After the inoculation, all kidney beans were placed under high humidity condition only at night. Four days after the inoculation, the area of lesion was investigated. As a result, the area of lesion on the plant treated with the present compound was 30% or less of that on an untreated plant.

[8] = tested on: cucumber anthracnose fungus (Colletotrichum lagenarium); assay: Test Example 7: cucumber anthracnose preventive foliar spray test; conditions: 50 ppm sprayed on cucumber (SAGAMI HANJIRO); spores inoculated after 1 day; one day high humidity then 6 days in greenhouse
Text: as §2, with “(50” for “(200”, “spores” for “zoospores”, “anthracnose” for “downy mildew”, “(Colletotrichum lagenarium)” for “(Pseudoperonospora cubensis)”, “spores.” for “zoospores.”, “placed” for “placed stand”

Measured: area of lesion on the treated plant relative to that on an untreated plant

Cc1cccc(-n2nnn(C)c2=O)c1CSc1ccn(-c2ccc(Cl)cc2)n1 [present compound 1, 1-(2-{[1-(4-chlorophenyl)-1H-pyrazol-3-yl]thiomethyl}-3-methy1phenyl)-4-methyl-1,4-dihydrotetrazol-5-one]
≤ 30%: all assays above
